Laboratory results from publication PMC1079881, “Differential modulation of microglia superoxide anion and thromboxane B2 generation by the marine manzamines” (BMC Pharmacology, 2005).
Read-outs that look alike come from different tables or passages of the source.

Key:
[1] = tested on: LPS-activated rat neonatal microglia; assay: PMA-stimulated TXB2 generation by LPS-activated rat neonatal microglia (immunoassay); assay type: cell-based; conditions: for IC50 / inhibition at 10 µM: Rattus norvegicus, Microglia; for IC50: PMA 1 μM, 70 min, LPS 0.3 ng/mL 17 h, manzamine added 15 min before; for inhibition at 10 µM: read-out: maximum inhibition of PMA-stimulated TXB2 generation; for inhibition at 10 µM / PMA-stimulated TXB2 released / PMA-stimulated TXB2 release, % of control: at 10 μM
Protocol: (§1) All experiments were performed with adherence to the National Institutes of Health guidelines on the use of experimental animals and with protocols approved by Midwestern University's Research and Animal Care Committee. To isolate rat neonatal microglia, cerebral cortices of 1–2 day-old Sprague-Dawley rats purchased from Harlan (Indianapolis, IN) were surgically removed and placed in cold DMEM + 10% FBS + 120 U/ml P and 12 μg/ml S, the meninges carefully removed, and brain tissue minced and dissociated with trypsin-EDTA at 36°C for 3–5 min. The mixed astroglial cell suspension was plated in either 75- or 162-cm^2 vented cell culture flasks with DMEM medium supplemented with 10% FBS + 120 U/ml P + 12 μg/ml S and grown in a humidified 5% CO2 incubator at 36°C for 12–14 days. […] Microglia were characterized as described earlier.
(§2) To study the effects of manzamines A, B, C, D, E and F on the generation of TXB2 and O2^-, rat neonatal microglia (2 × 10^5 cells/24-well cell culture clusters) were treated to the following protocol. Seventeen hours prior to the experiments, microglia cells were treated with LPS (0.3 ng/ml) in a final volume of 1 ml of DMEM supplemented with 10% FBS + 120 U/ml P + 12 μg/ml. […] O2^-, TXB2 and lactate dehydrogenase (LDH) release were assayed as described below.
(§3) Following the incubation of LPS-activated microglia with HBSS, manzamines or vehicle as explained above, PMA- (1 μM) or OPZ- (0.5 mg/mL)triggered TXB2 generation in the culture supernatants was measured using immunoassays (Cayman Chemical, Ann Arbor, MI) as indicated by the manufacturer's protocol. Results were expressed as pg/mL produced after 70 min of PMA or OPZ stimulation.

[2] = tested on: LPS-activated rat neonatal microglia; assay: OPZ-stimulated TXB2 generation by LPS-activated rat neonatal microglia (immunoassay); assay type: cell-based; conditions: for IC50 / inhibition at 10 µM: Rattus norvegicus, Microglia; for IC50: OPZ 0.5 mg/mL, 70 min, LPS 0.3 ng/mL 17 h; for inhibition at 10 µM / OPZ-stimulated TXB2 released / OPZ-stimulated TXB2 generation, % of control: at 10 μM
Protocol: as §1, §2, §3

[3] = parameters: method as in PMID 10817722; conditions: cited from earlier work
[4] = tested on: LPS-activated rat neonatal microglia; assay: PMA-stimulated O2^- generation by LPS-activated rat neonatal microglia (SOD-inhibitable FCC reduction); assay type: cell-based; conditions: for IC50 / inhibition at 10 µM: Rattus norvegicus, Microglia; for IC50: PMA 1 μM, 70 min, LPS 0.3 ng/mL 17 h
Protocol: as §1, §2
(§4) O2^- generation was determined by the SOD-inhibitable reduction of FCC [23]. […] All experimental treatments were run in triplicate and in a final volume of 1 ml. Changes in FCC absorbance were measured at 550 nm using a Beckman DU-650 spectrophotometer.

[5] = tested on: LPS-activated rat neonatal microglia; assay: OPZ-stimulated O2^- generation by LPS-activated rat neonatal microglia (SOD-inhibitable FCC reduction); assay type: cell-based; conditions: for IC50: OPZ 0.5 mg/mL, 70 min, LPS 0.3 ng/mL 17 h; for effect on OPZ-stimulated O2^- generation: even at 10 μM
Protocol: as §1, §2, §4

[6] = molecular target: hypoxanthine-xanthine oxidase system (Homo sapiens, UniProt P47989); assay: Cell-free O2^- generation by hypoxanthine-xanthine oxidase system (scavenging test); assay type: biochemical; conditions: for O2^- generated by hypoxanthine-xanthine oxidase system: control (DMSO) 12 ± 1.1, test concentration not given
Chain of hypoxanthine-xanthine oxidase system (P47989 whole entry): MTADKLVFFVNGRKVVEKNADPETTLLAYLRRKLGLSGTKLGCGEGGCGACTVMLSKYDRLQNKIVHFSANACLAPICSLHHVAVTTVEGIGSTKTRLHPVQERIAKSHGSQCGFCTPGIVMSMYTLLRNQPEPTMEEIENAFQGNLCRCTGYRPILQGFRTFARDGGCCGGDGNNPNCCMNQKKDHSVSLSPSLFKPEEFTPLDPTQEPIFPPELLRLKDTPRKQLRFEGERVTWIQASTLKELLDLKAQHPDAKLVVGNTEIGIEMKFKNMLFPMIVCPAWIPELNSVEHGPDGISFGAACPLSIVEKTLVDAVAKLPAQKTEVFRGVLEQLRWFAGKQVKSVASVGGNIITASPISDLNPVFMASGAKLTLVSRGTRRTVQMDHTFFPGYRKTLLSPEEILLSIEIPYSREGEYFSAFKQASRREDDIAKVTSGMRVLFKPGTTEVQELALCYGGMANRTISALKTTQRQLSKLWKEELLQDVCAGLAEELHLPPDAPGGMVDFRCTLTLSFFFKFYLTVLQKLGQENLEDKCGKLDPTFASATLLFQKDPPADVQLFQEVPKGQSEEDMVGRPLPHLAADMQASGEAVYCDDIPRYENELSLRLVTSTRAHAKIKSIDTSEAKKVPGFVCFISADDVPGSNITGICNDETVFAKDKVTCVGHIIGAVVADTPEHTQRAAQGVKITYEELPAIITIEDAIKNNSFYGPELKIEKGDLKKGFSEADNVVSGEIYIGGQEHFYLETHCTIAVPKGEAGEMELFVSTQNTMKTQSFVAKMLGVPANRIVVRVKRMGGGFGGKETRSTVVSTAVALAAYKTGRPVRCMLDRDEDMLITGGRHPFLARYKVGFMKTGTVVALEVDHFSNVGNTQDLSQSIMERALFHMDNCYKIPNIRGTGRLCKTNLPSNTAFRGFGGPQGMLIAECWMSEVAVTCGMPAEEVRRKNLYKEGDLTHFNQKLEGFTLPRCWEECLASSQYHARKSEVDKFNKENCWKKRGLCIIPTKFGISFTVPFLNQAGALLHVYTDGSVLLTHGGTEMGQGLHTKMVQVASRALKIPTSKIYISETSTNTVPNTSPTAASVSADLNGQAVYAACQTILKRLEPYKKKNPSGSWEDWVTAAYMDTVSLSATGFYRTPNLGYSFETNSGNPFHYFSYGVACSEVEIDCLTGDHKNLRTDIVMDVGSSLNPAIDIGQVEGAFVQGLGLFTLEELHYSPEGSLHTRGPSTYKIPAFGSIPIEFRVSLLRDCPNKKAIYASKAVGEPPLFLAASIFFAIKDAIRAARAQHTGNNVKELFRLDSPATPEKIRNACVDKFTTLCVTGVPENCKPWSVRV
Protocol: A standard hypoxanthine-xanthine oxidase system was used as a cell-free source of O2^-. O2^- was generated by incubation of purified xanthine oxidase (0.02 Units/ml) with hypoxanthine (1.5 mM) at 37°C [21]. O2^- formation was assessed spectrophotometrically as the increase in absorbance at 550 nm associated with the SOD (30 U/mL)-inhibitable reduction FCC (50 μM) as described above for rat microglia O2^- generation and expressed in nmoles/30 minutes.

[7] = tested on: LPS-activated rat neonatal microglia; assay: LDH release (cytotoxicity) from LPS-activated rat neonatal microglia; assay type: cell-based
Protocol: as §2, with “μg/ml. Thereafter the media was removed and replaced with 1 ml warm HBSS, one of the manzamines (0.1–10 μM final concentration) or vehicle (DMSO) was added, and the microglia incubated for fifteen minutes in a humidified 5% CO2 incubator at 35.9°C. After the fifteen minute preincubation period with either manzamines or vehicle, PMA (1 μM) or OPZ (0.5 mg/mL) was added and microglia incubated for 70 minutes in a humidified 5% CO2 incubator at 35.9°C in the presence of the manzamines or vehicle.” for “μg/ml.”
Lactate dehydrogenase (LDH) release from microglia was determined spectrophotometrically as described elsewhere. Microglia LDH release was expressed as a percentage of total LDH. Total LDH resulted from 0.1% Triton X-100-lysed microglia cells (intracellular LDH) plus LDH released to the extracellular medium.

[8] = tested on: LPS-induced microglia PGE2 synthesis; conditions: cited from earlier work
activated rat microglia = conditions: read-out: IC50, PMA-stimulated O2^- generation in microglia; cited from earlier work
[9] = read-out: apparent IC50, LPS-induced microglia PGE2 synthesis

O[C@]12C=C(c3nccc4c3[nH]c3ccccc34)[C@@H]3CCN(CCCC/C=C\CC1)C[C@@]31C[C@@H]3/C=C\CCCCN3[C@H]12 [MZA, manzamine A]
IC50 [1]: < 0.016 µM
inhibition at 10 µM [1]: 95.5%
PMA-stimulated TXB2 released [1]: 78.3 ± 45 pg of TXB2 per 200,000 microglia per 70 min
IC50 [2]: 3.16 µM
inhibition at 10 µM [2]: 58%
OPZ-stimulated TXB2 released [2]: 1,927 ± 474 pg of TXB2 per 200,000 microglia per 70 min
in vivo toxicity [3]: lack of significant in vivo toxicity
IC50 [4]: 0.1 µM
inhibition at 10 µM ([4]; at 10 μM): 55.9 ± 6.1%
IC50 ([5]; Rattus norvegicus, Microglia): > 10 µM
OPZ-stimulated O2^- released ([5]; at 10 μM): 9.5 ± 1 O2^- nmol per 200,000 microglia per 70 min
effect on OPZ-stimulated O2^- generation [5]: did not appear to affect
O2^- generated by hypoxanthine-xanthine oxidase system [6]: 15.3 ± 4.4 nmoles/30 min

C1=C\CC[C@]23CN4CCCC/C=C\CC[C@@]5(O[C@H]5[C@@H](c5nccc6c5[nH]c5ccccc56)[C@@H]2CC4)[C@@H]3NCCCC/1 [MZB, manzamine B]
IC50 [1]: 1.6 µM
PMA-stimulated TXB2 release, % of control [1]: 15.5 % of control
PMA-stimulated TXB2 released [1]: 546.3 ± 281 pg of TXB2 per 200,000 microglia per 70 min
concentrations cytotoxic to neonatal brain microglia [7]: above 1 μM
IC50 [2]: 1.44 µM
OPZ-stimulated TXB2 generation, % of control [2]: 25.6 % of control
OPZ-stimulated TXB2 released [2]: 1,160 ± 207 pg of TXB2 per 200,000 microglia per 70 min
IC50 [4]: 3.16 µM
PMA-stimulated O2^- release, % of control ([4]; at 10 μM): 20 % of control
PMA-stimulated O2^- released ([4]; at 10 μM): 2.14 ± 2.14 nmol of O2^- per 200,000 microglia per 70 min
IC50 ([5]; Rattus norvegicus, Microglia): 4.17 µM
OPZ-stimulated O2^- generation, % of control ([5]; at 10 μM): 16.5 % of control
OPZ-stimulated O2^- released ([5]; at 10 μM): 1.5 ± 0.7 O2^- nmol per 200,000 microglia per 70 min
O2^- generated by hypoxanthine-xanthine oxidase system [6]: 15.3 ± 2.4 nmoles/30 min

C1=C\CCCCN(CCc2nccc3c2[nH]c2ccccc23)CCCC/1 [MZC, manzamine C]
IC50 [1]: 2.98 µM
PMA-stimulated TXB2 release, % of control [1]: 19.6 % of control
PMA-stimulated TXB2 released [1]: 677 ± 293 pg of TXB2 per 200,000 microglia per 70 min
IC50 [2]: 3.34 µM
OPZ-stimulated TXB2 generation, % of control [2]: 29.8 % of control
OPZ-stimulated TXB2 released [2]: 1,345 ± 160 pg of TXB2 per 200,000 microglia per 70 min
IC50 [4]: 3.43 µM
PMA-stimulated O2^- release, % of control ([4]; at 10 μM): 36.1 % of control
PMA-stimulated O2^- released ([4]; at 10 μM): 3.7 ± 2.2 nmol of O2^- per 200,000 microglia per 70 min
IC50 ([5]; Rattus norvegicus, Microglia): 9.3 µM
OPZ-stimulated O2^- generation, % of control ([5]; at 10 μM): 41.6 % of control
OPZ-stimulated O2^- released ([5]; at 10 μM): 3.9 ± 0.3 O2^- nmol per 200,000 microglia per 70 min
O2^- generated by hypoxanthine-xanthine oxidase system [6]: 20.7 ± 3.1 nmoles/30 min

O[C@]12C=C(C3NCCc4c3[nH]c3ccccc43)[C@@H]3CCN(CCCC/C=C\CC1)C[C@@]31C[C@@H]3/C=C\CCCCN3[C@H]12 (stereo partly drawn) [MZD, manzamine D]
IC50 [1]: 0.23 µM
PMA-stimulated TXB2 release, % of control [1]: 18.8 % of control
PMA-stimulated TXB2 released [1]: 611 ± 342 pg of TXB2 per 200,000 microglia per 70 min
IC50 [2]: > 10 µM
OPZ-stimulated TXB2 generation, % of control [2]: 79.9 % of control
OPZ-stimulated TXB2 released [2]: 3,613 ± 469 pg of TXB2 per 200,000 microglia per 70 min
IC50 [4]: < 0.1 µM
PMA-stimulated O2^- release, % of control ([4]; at 0.1 μM): 14 % of control
PMA-stimulated O2^- released ([4]; at 0.1 μM): 0.7 ± 0.7 nmol of O2^- per 200,000 microglia per 70 min
IC50 ([5]; Rattus norvegicus, Microglia): > 10 µM
effect on OPZ-stimulated O2^- generation [5]: did not affect
O2^- generated by hypoxanthine-xanthine oxidase system [6]: 22.2 ± 2 nmoles/30 min

O=C1CCCN2[C@@H](CC1)C[C@]13CN4CCCC/C=C\CC[C@](O)(C=C(c5nccc6c5[nH]c5ccccc56)[C@@H]1CC4)[C@H]23 [MZE, manzamine E]
IC50 [1]: > 10 µM
inhibition at 10 µM [1]: 49.4%
PMA-stimulated TXB2 released [1]: 1,614 ± 628 pg of TXB2 per 200,000 microglia per 70 min
IC50 [2]: > 10 µM
inhibition at 10 µM [2]: 43.1%
OPZ-stimulated TXB2 released [2]: 2,594 ± 646 pg of TXB2 per 200,000 microglia per 70 min
IC50 [4]: > 10 µM
inhibition at 10 µM ([4]; at 10 μM): 26.3%
PMA-stimulated O2^- released ([4]; at 10 μM): 8.5 ± 2.1 nmol of O2^- per 200,000 microglia per 70 min
IC50 ([5]; Rattus norvegicus, Microglia): > 10 µM
effect on OPZ-stimulated O2^- generation [5]: did not affect
O2^- generated by hypoxanthine-xanthine oxidase system [6]: 16.3 ± 2.2 nmoles/30 min

O=C1CCCN2[C@@H](CC1)C[C@]13CN4CCCC/C=C\CC[C@](O)(C=C(c5nccc6c5[nH]c5c(O)cccc56)C1CC4)[C@H]23 (stereo partly drawn) [MZF, manzamine F]
IC50 [1]: > 10 µM
PMA-stimulated TXB2 release, % of control [1]: 104.1 ± 24.7 % of control
PMA-stimulated TXB2 released [1]: 3,202 ± 1,139 pg of TXB2 per 200,000 microglia per 70 min
IC50 [2]: > 10 µM
inhibition at 10 µM [2]: 26.2%
OPZ-stimulated TXB2 released [2]: 3,317 ± 121 pg of TXB2 per 200,000 microglia per 70 min
IC50 [4]: > 10 µM
PMA-stimulated O2^- release, % of control ([4]; at 10 μM): 113 ± 14.5 % of control
PMA-stimulated O2^- released ([4]; at 10 μM): 12.8 ± 1.6 nmol of O2^- per 200,000 microglia per 70 min
IC50 ([5]; Rattus norvegicus, Microglia): > 10 µM
inhibition at 10 µM ([5]; Rattus norvegicus, Microglia, at 10 μM, non-statistically significant): 15.7%
O2^- generated by hypoxanthine-xanthine oxidase system [6]: 20.1 ± 3.6 nmoles/30 min

CS(=O)(=O)Nc1ccc([N+](=O)[O-])cc1OC1CCCCC1 [NS-398]
IC50 [8, 9]: 0.001 to 0.005 µM

CC(=O)Oc1ccccc1C(=O)O [acetylsalicylic acid]
IC50 ([8]; COX-1 inhibitor, read-out: IC50, LPS-induced microglia PGE2 synthesis): 3.12 to 10 µM

C=CCN1C[C@H](C(=O)N(CCCN(C)C)C(=O)NCC)C[C@@H]2c3cccc4[nH]cc(c34)C[C@H]21 [cabergoline]
IC50 (activated rat microglia): > 100 µM

CC(C(=O)O)c1ccc(-c2ccccc2)c(F)c1 (stereo not drawn) [flurbiprofen]
IC50 ([8]; COX-1 inhibitor, read-out: apparent IC50, LPS-induced microglia PGE2 synthesis): 0.1 µM

COc1ccc2c(c1)c(CC(=O)O)c(C)n2C(=O)c1ccc(Cl)cc1 [indomethacin]
IC50 [8, 9]: 0.001 µM

CO[C@]12C[C@@H](COC(=O)c3cncc(Br)c3)CN(C)[C@@H]1Cc1cn(C)c3cccc2c13 [nicergoline]
IC50 (activated rat microglia): 10 to 15 µM

CCCn1cnc2c1c(=O)n(CCCCC(C)=O)c(=O)n2C [propentofylline]
IC50 (activated rat microglia): > 100 µM

superoxide dismutase: superoxide dismutase (from bovine liver), Sigma
effect on hypoxanthine-xanthine oxidase O2^- generation [6]: abolished
